The record followed here is patent EP4818178A1, “PREPARATION AND USE OF PYRIMIDOTHIOPYRANONE KRAS MUTANT PROTEIN INHIBITOR” (Ya Therapeutics Inc, priority 2024, dated 2025).

pIC50: −log10 of the molar value.

In this test the target is KRasG12D (Homo sapiens, UniProt P01116, G12D). Briefly: KRAS inhibitory activity test, TR-FRET (inhibition of binding of KRasG12D to GTP, SOS/GTP nucleotide exchange). Format: biochemical. As to conditions: read-out: IC50 values of the compounds for inhibiting KRAS enzymes, G12D. Here is the method:
• 1. […] Reagent Preparation: • a. Storage Reagents:
Prepare a 1L solution by mixing 20mL of 1000mM HEPES, 20mL of 500mM EDTA, 10mL of 5M sodium chloride, 0.1mL of 100% Tween 20, and 949.9mL of water. Sterilize by filtration and store at 4°C.
Prepare a 1L solution by mixing 20mL of 1000mM HEPES, 10mL of 1000mM magnesium chloride, 30mL of 5M sodium chloride, 0.05mL of 100% Tween 20, and 939.95mL of water. Sterilize by filtration and store at 4°C. 3) KRAS/Bodipy GDP/Tb-SA Mixture: Mix 9.5 µL of 95 µM KRasG12D protein with 440.5 µL of KRAS nucleotide exchange buffer. Incubate at room temperature for 1 hour. Then, mix with 8.4 µL of 17.9 µM Tb-SA, 1.8 µL of 5 mM Bodipy GDP, and 9539.8 µL of KRAS experimental buffer to prepare […]. After mixing, incubate at room temperature for 6 hours and store at -80°C.
• 1) KRAS Enzyme Solution: Mix 73.3 µL of KRAS/Bodipy GDP/Tb-SA mixture with 2126.7 µL of KRAS experimental buffer to prepare a 2200 µL solution. • 2) SOS/GTP Mixture
c. Experimental Procedure: Mix 1.59 µL of 166 µM SOS protein with 198 µL of 100 mM... GTP and 0.41 µL KRAS buffer were prepared to a 2200 µL solution. The stock solution concentration of the control compound was 1 mM, and the stock solution concentration of the test compound was 10 mM. 9 µL of the control compound and the test compound were transferred to a 384-LDV plate. The compound on the LDV plate was 3-fold diluted 10-point using Bravo. 9 nL of the compound on the LDV plate was transferred to the experimental plate using ECHO. 3 µL of a 3 nM Kras/0.5 nM TB-SA/30 nM BodipyGDP mixture and 3 µL of Ras buffer were added to each well of the experimental plate using a Dragonfly autopilot. The plate was centrifuged at 1000 rpm for 1 minute. The plate was incubated at room temperature for 1 hour. 3 µL of 120 nM SOS/9 mM KRAS buffer was added to each well of the experimental plate using a Dragonfly autopilot. The […] was centrifuged at 1000 rpm for 1 minute; the plate was incubated at room temperature for 1 hour; the plate was read and the data were recorded using Envision; the data were analyzed using Excel and Xlfit to calculate the IC50of the test compound. "++++" indicates IC50≤ 10 nM; "+++" indicates 10 nM < IC50≤ 100 nM; "++" indicates 100 nM < IC50≤ 2000 nM; "+" indicates 2000 nM < IC50.
“7-(3-amino-2-fluoro-5-methyl-6-(trifluoromethyl)phenyl)-4-(1R,5S)-3,8-diazabicyclo [3.2.1]octane-3-yl)-2-(((2R,7AS)-2-fluorotetrahydro-1H-pyrrolazin-7a(5H)-yl)methox y)-7,8-dihydro-5H-thiopyrano[4,3-d]pyrimidine-6,6-dioxide [Compound 30]”: the negative logarithm of the IC50 (pIC50) is at least 8.00.
To “7-(3-amino-2-fluoro-5-methyl-6-(trifluoromethyl)phenyl)-4-(1R,5S)-3,8-diazabicyclo [3.2.1]octane-3-yl)-2-(((2R,7AS)-2-fluorotetrahydro-1H-pyrrolazin-7a(5H)-yl)methox y)-7,8-dihydro-5H-thiopyrano[4,3-d]pyrimidine-6,6-dioxide [Compound 36]” belongs at least 8.00.
To “7-(3-amino-2-fluoro-5-methyl-6-(trifluoromethyl)phenyl)-4-(3,8-diazabicyclo[3.2.1]o ctane-3-yl)-2-(((S)-2-(difluoromethylene)tetrahydro-1H-pyrrolazin-7a(5H)-yl)methox y)-7,8-dihydro-5H-thiopyrano[4,3-d]pyrimidine-6,6-dioxide [Compound 9]” belongs at least 8.00.
As for `Cc1cc(N)c(F)c([C@@H]2Cc3nc(OC[C@@]45CCCN4C[C@H](F)C5)nc(N4C[C@H]5CC[C@@H](C4)N5)c3CS2(=O)=O)c1C(F)(F)F` [Compound 1A, (7S)-7-(3-amino-2-fluoro-5-methyl-6-(trifluoromethyl)phenyl)-4-((1R,5S)-3,8-diazabicyclo[3.2.1]octane-3-yl)-2-(((2R,7AS)-2-fluorotetrahydro-1H-pyrrolazin-7a(5H)-yl)methoxy)-7,8-dihydro-5H-thiopyrano[4,3-d]pyrimidine 6,6-Dioxide], the pIC50 was at least 8.00.
Consider `Cc1cc(N)c(F)c([C@H]2Cc3nc(OC[C@@]45CCCN4C[C@H](F)C5)nc(N4C[C@H]5CC[C@@H](C4)N5)c3CS2(=O)=O)c1C(F)(F)F` [Compound 1B, (7R)-7-(3-amino-2-fluoro-5-methyl-6-(trifluoromethyl)phenyl)-4-((1R,5S)-3,8-diazabicyclo[3.2.1]octane-3-yl)-2-(((2R,7AS)-2-fluorotetrahydro-1H-pyrrolazin-7a(5H)-yl)methoxy)-7,8-dihydro-5H-thiopyrano[4,3-d]pyrimidine 6,6-Dioxide], for which the pIC50 is 7.00 to 8.00.
Take `Cc1cc(O)c(F)c([C@@H]2Cc3nc(OC[C@@]45CCCN4C[C@H](F)C5)nc(N4C[C@H]5CC[C@@H](C4)N5)c3CS2(=O)=O)c1C(F)(F)F` [Compound 2A, (7S)-4-((1R,5S)-3,8-diazabicyclo[3.2.1]octane-3-yl)-7-(2-fluoro-3-hydroxy-5-methyl-6-(trifluoromethyl)phenyl)-2-(((2R,7AS)-2-fluorotetrahydro-1H-pyrrolazin-7a(5H)-yl)methoxy)-7,8-dihydro-5H-thiopyrano[4,3-d]pyrimidine-6,6-dioxide]: the pIC50 is 7.00 to 8.00.
Regarding `Cc1cc(O)c(F)c([C@H]2Cc3nc(OC[C@@]45CCCN4C[C@H](F)C5)nc(N4C[C@H]5CC[C@@H](C4)N5)c3CS2(=O)=O)c1C(F)(F)F` [Compound 2B, (7R)-4-((1R,5S)-3,8-diazabicyclo[3.2.1]octane-3-yl)-7-(2-fluoro-3-hydroxy-5-methyl-6-(trifluoromethyl)phenyl)-2-(((2R,7AS)-2-fluorotetrahydro-1H-pyrrolazin-7a(5H)-yl)methoxy)-7,8-dihydro-5H-thiopyrano[4,3-d]pyrimidine-6,6-dioxide], the negative-log IC50 (pIC50) is at least 8.00.
Take `Cc1cc(N)nc([C@@H]2Cc3nc(OC[C@@]45CCCN4C[C@H](F)C5)nc(N4C[C@H]5CC[C@@H](C4)N5)c3CS2(=O)=O)c1C(F)(F)F` [Compound 3A, (7S)-7-(6-amino-4-methyl-3-(trifluoromethyl)pyridin-2-yl)-4-((1R,5S)-3,8-diazabicyclo[3.2.1]octane-3-yl)-2-(((2R,7AS)-2-fluorotetrahydro-1H-pyrrolazin-7a(5H)-yl)methoxy)-7,8-dihydro-5H-thiopyrano[4,3-d]pyrimidine 6,6-Dioxide]: the negative logarithm of the IC50 (pIC50) is 7.00 to 8.00.
As for `Cc1cc(N)nc([C@H]2Cc3nc(OC[C@@]45CCCN4C[C@H](F)C5)nc(N4C[C@H]5CC[C@@H](C4)N5)c3CS2(=O)=O)c1C(F)(F)F` [Compound 3B, (7R)-7-(6-amino-4-methyl-3-(trifluoromethyl)pyridin-2-yl)-4-((1R,5S)-3,8-diazabicyclo[3.2.1]octane-3-yl)-2-(((2R,7AS)-2-fluorotetrahydro-1H-pyrrolazin-7a(5H)-yl)methoxy)-7,8-dihydro-5H-thiopyrano[4,3-d]pyrimidine 6,6-Dioxide], the pIC50 was at least 8.00.
For `Cc1cc(O)nc([C@@H]2Cc3nc(OC[C@@]45CCCN4C[C@H](F)C5)nc(N4C[C@H]5CC[C@@H](C4)N5)c3CS2(=O)=O)c1C(F)(F)F` [Compound 4A, (7S)-4-((1R,5S)-3,8-diazabicyclo[3.2.1]octane-3-yl)-2-(((2R,7AS)-2-fluorotetrahydro-1H-pyrrolazin-7a(5H)-yl)methoxy)-7-(6-hydroxy-4-methyl-3-(trifluoromethyl)pyridin-2-yl)-7,8-dihydro-5H-thiopyrano[4,3-d]pyrimidine-6,6-dioxide], the pIC50 is at least 8.00.
For the compound `Cc1cc(O)nc([C@H]2Cc3nc(OC[C@@]45CCCN4C[C@H](F)C5)nc(N4C[C@H]5CC[C@@H](C4)N5)c3CS2(=O)=O)c1C(F)(F)F` [Compound 4B, (7R)-4-((1R,5S)-3,8-diazabicyclo[3.2.1]octane-3-yl)-2-(((2R,7AS)-2-fluorotetrahydro-1H-pyrrolazin-7a(5H)-yl)methoxy)-7-(6-hydroxy-4-methyl-3-(trifluoromethyl)pyridin-2-yl)-7,8-dihydro-5H-thiopyrano[4,3-d]pyrimidine-6,6-dioxide], the pIC50 was 7.00 to 8.00.
Consider `Cc1cc(N)c(F)c([C@@H]2Cc3nc(OC[C@@]45CCCN4C[C@H](F)C5)nc(N4CCC[C@@](C)(O)C4)c3CS2(=O)=O)c1C(F)(F)F` [Compound 5A, (7S)-7-(3-amino-2-fluoro-5-methyl-6-(trifluoromethyl)phenyl)-2-(((2R,7AS)-2-fluorotetrahydro-1H-pyrrolazin-7a(5H)-yl)methoxy)-4-((R)-3-hydroxy-3-methylpiperidin-1-yl)-7,8-dihydro-5H-thiopyrano[4,3-d]pyrimidine-6,6-dioxide], for which the pIC50 is 7.00 to 8.00.
`Cc1cc(N)c(F)c([C@H]2Cc3nc(OC[C@@]45CCCN4C[C@H](F)C5)nc(N4CCC[C@@](C)(O)C4)c3CS2(=O)=O)c1C(F)(F)F` [Compound 5B, (7R)-7-(3-amino-2-fluoro-5-methyl-6-(trifluoromethyl)phenyl)-2-(((2R,7AS)-2-fluorotetrahydro-1H-pyrrolazin-7a(5H)-yl)methoxy)-4-((R)-3-hydroxy-3-methylpiperidin-1-yl)-7,8-dihydro-5H-thiopyrano[4,3-d]pyrimidine-6,6-dioxide]: the pIC50 was at least 8.00.
In the case of `Cc1cc(O)c(F)c([C@@H]2Cc3nc(OC[C@@]45CCCN4C[C@H](F)C5)nc(N4CCC[C@@](C)(O)C4)c3CS2(=O)=O)c1C(F)(F)F` [Compound 6A, (7S)-7-(2-fluoro-3-hydroxy-5-methyl-6-(trifluoromethyl)phenyl)-2-(((2R,7AS)-2-fluorotetrahydro-1H-pyrrolazin-7a(5H)-yl)methoxy)-4-((R)-3-hydroxy-3-methylpiperidin-1-yl)-7,8-dihydro-5H-thiopyrano[4,3-d]pyrimidine-6,6-dioxide], the pIC50 was at least 8.00.
With `Cc1cc(O)c(F)c([C@H]2Cc3nc(OC[C@@]45CCCN4C[C@H](F)C5)nc(N4CCC[C@@](C)(O)C4)c3CS2(=O)=O)c1C(F)(F)F` [Compound 6B, (7R)-7-(2-fluoro-3-hydroxy-5-methyl-6-(trifluoromethyl)phenyl)-2-(((2R,7AS)-2-fluorotetrahydro-1H-pyrrolazin-7a(5H)-yl)methoxy)-4-((R)-3-hydroxy-3-methylpiperidin-1-yl)-7,8-dihydro-5H-thiopyrano[4,3-d]pyrimidine-6,6-dioxide], the pIC50 is 7.00 to 8.00.
To `Cc1cc(N)nc([C@@H]2Cc3nc(OC[C@@]45CCCN4C[C@H](F)C5)nc(N4CCC[C@@](C)(O)C4)c3CS2(=O)=O)c1C(F)(F)F` [Compound 7A, (7S)-7-(6-amino-4-methyl-3-(trifluoromethyl)pyridin-2-yl)-2-(((2R,7AS)-2-fluorotetrahydro-1H-pyrrolazin-7a(5H)-yl)methoxy)-4-((R)-3-hydroxy-3-methylpiperidin-1-yl) -7,8-dihydro-5H-thiopyrano[4,3-d]pyrimidine-6,6-dioxide] belongs at least 8.00.
